The target of this test is T1, fMet-Leu-Phe receptor (Homo sapiens, UniProt P21462).
T1 sequence (P21462 whole entry): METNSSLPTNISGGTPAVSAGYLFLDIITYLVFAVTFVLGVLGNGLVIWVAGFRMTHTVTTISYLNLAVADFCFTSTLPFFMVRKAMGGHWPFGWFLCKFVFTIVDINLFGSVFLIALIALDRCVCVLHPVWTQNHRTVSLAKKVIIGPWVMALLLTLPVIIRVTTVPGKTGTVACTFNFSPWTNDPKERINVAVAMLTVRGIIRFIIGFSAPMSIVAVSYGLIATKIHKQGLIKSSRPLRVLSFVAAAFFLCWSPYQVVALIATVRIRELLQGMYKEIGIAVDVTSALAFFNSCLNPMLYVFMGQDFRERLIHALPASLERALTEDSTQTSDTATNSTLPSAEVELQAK
The test can be described thus: FPR ligands, dose response (AID 519).
On to `Cc1ccc(C2c3c([nH]c(=S)[nH]c3=O)N=C3CC(C)(C)CC(=O)C32)cc1` (stereo unspecified) [8,8-dimethyl-5-(4-methylphenyl)-2-sulfanylidene-5,7,9,10-tetrahydro-1H-pyrimido[4,5-b]quinoline-4,6-dione], for which the Ki came to 31.4 µM.
`COc1ccc(C2C(C(=O)c3ccco3)C(=O)C(=O)N2CCc2ccccc2)cc1OC` (stereo unspecified) [2-(3,4-dimethoxyphenyl)-3-(furan-2-carbonyl)-4-hydroxy-1-(2-phenylethyl)-2H-pyrrol-5-one] gave a Ki of 24.1 µM.
As for `Cc1ccc(C(=O)C2C(=O)C(=O)N(CCCn3ccnc3)C2c2ccc(OC(C)C)cc2)o1` (stereo unspecified) [1-(3-imidazol-1-ylpropyl)-3-(5-methylfuran-2-yl)carbonyl-4-oxidanyl-2-(4-propan-2-yloxyphenyl)-2H-pyrrol-5-one], the Ki is greater than 43.7 µM.
Consider `CCOc1ccc(C2C(C(=O)c3ccco3)C(=O)C(=O)N2CCCn2ccnc2)cc1` (stereo unspecified) [2-(4-ethoxyphenyl)-3-(furan-2-carbonyl)-4-hydroxy-1-(3-imidazol-1-ylpropyl)-2H-pyrrol-5-one], for which affinity was put at a Ki of 6.4 µM.
`Cc1ccc(C(=O)C2C(=O)C(=O)N(CC(C)O)C2c2ccc(N(C)C)cc2)cc1` (stereo unspecified) [(4E)-5-[4-(dimethylamino)phenyl]-1-(2-hydroxypropyl)-4-[hydroxy(p-tolyl)methylene]pyrrolidine-2,3-quinone]: the Ki was greater than 43.7 µM.
As for `COc1cccc(C2C(C(=O)c3cc4ccccc4o3)C(=O)C(=O)N2c2cc(C)on2)c1OC` (stereo unspecified) [3-(1-benzofuran-2-carbonyl)-2-(2,3-dimethoxyphenyl)-4-hydroxy-1-(5-methyl-1,2-oxazol-3-yl)-2H-pyrrol-5-one], the Ki is greater than 43.7 µM.
For `COc1cc(-n2nc(C)c3c2OC(=N)C(C#N)C3c2ccccc2)c(Cl)c(Br)c1O` (stereo unspecified) [6-amino-1-(3-bromo-2-chloro-4-hydroxy-5-methoxyphenyl)-3-methyl-4-phenyl-1,4-dihydropyrano[2,3-c]pyrazole-5-carbonitrile], the inhibition constant (Ki) worked out at 21.3 µM.
`COc1ccccc1C1C(C(=O)c2ccccc2)C(=O)C(=O)N1CC(C)O` (stereo unspecified) [(4Z)-4-[hydroxy(phenyl)methylene]-1-(2-hydroxypropyl)-5-(2-methoxyphenyl)pyrrolidine-2,3-quinone] yielded a Ki of 16.1 µM.
In turn, `COc1ccc(C(=O)C2C(=O)C(=O)N(Cc3ccco3)C2c2ccc(OC)cc2OC)cc1` (stereo unspecified) [(4E)-5-(2,4-dimethoxyphenyl)-1-(2-furanylmethyl)-4-[hydroxy-(4-methoxyphenyl)methylidene]pyrrolidine-2,3-dione] gave a Ki greater than 43.7 µM.
The molecule `O=C1C(=O)N(Cc2ccccc2)C(c2ccncc2)C1C(=O)c1ccco1` (stereo unspecified) [1-Benzyl-4-(furan-2-carbonyl)-3-hydroxy-5-pyridin-4-yl-1,5-dihydro-pyrrol-2-one] gave a Ki of 8.9 µM.
The molecule `COc1cc(C2C(C(=O)c3ccco3)C(=O)C(=O)N2CCc2ccccc2)ccc1O` (stereo unspecified) [3-(furan-2-carbonyl)-4-hydroxy-2-(4-hydroxy-3-methoxyphenyl)-1-(2-phenylethyl)-2H-pyrrol-5-one] had a Ki greater than 43.7 µM.
The molecule `CCOc1ccc(C(=O)C2C(=O)C(=O)N(CC3CCCO3)C2c2ccc(C)o2)cc1` (stereo unspecified) [(4Z)-4-[(4-ethoxyphenyl)-hydroxymethylidene]-5-(5-methyl-2-furanyl)-1-(2-oxolanylmethyl)pyrrolidine-2,3-dione] showed a Ki of 13.8 µM.
As for `COc1ccc(C(=O)C2C(=O)C(=O)N(CCN3CCOCC3)C2c2ccc(C)cc2)cc1` (stereo unspecified) [(4Z)-4-[(4-methoxyphenyl)-oxidanyl-methylidene]-5-(4-methylphenyl)-1-(2-morpholin-4-ylethyl)pyrrolidine-2,3-dione], the inhibition constant Ki was greater than 43.7 µM.
`CC1Cc2cc(C(=O)C3C(=O)C(=O)N(CCN4CCOCC4)C3c3ccccc3F)ccc2O1` (stereo unspecified) [(4E)-5-(2-fluorophenyl)-4-[(2-methyl-2,3-dihydro-1-benzofuran-5-yl)-oxidanyl-methylidene]-1-(2-morpholin-4-ylethyl)pyrrolidine-2,3-dione] came in with a Ki greater than 43.7 µM.
In the case of `COCCCN1C(=O)C(=O)C(C(=O)c2ccco2)C1c1ccc(Br)cc1` (stereo unspecified) [2-(4-bromophenyl)-3-(furan-2-carbonyl)-4-hydroxy-1-(3-methoxypropyl)-2H-pyrrol-5-one], the affinity corresponds to a Ki of 9.6 µM.
`COc1cccc(C2C(C(=O)c3ccc(OC)c(OC)c3)C(=O)C(=O)N2c2cc(C)on2)c1` (stereo unspecified) [(4E)-4-[(3,4-dimethoxyphenyl)-hydroxy-methylene]-5-(3-methoxyphenyl)-1-(5-methylisoxazol-3-yl)pyrrolidine-2,3-quinone] came in with a Ki greater than 43.7 µM.
For `COC(=O)c1[nH]c(C)c(C(=O)C2C(=O)C(=O)N(CCCN3CCOCC3)C2c2ccccn2)c1C` (stereo unspecified) [methyl 4-{[4-hydroxy-1-[3-(4-morpholinyl)propyl]-5-oxo-2-(2-pyridinyl)-2,5-dihydro-1H-pyrrol-3-yl]carbonyl}-3,5-dimethyl-1H-pyrrole-2-carboxylate], affinity was put at a Ki of 6.3 µM.
`COc1cccc(C(=O)C2C(=O)C(=O)N(Cc3cccnc3)C2c2ccco2)c1` (stereo unspecified) [(4Z)-5-(2-furanyl)-4-[hydroxy-(3-methoxyphenyl)methylidene]-1-(3-pyridinylmethyl)pyrrolidine-2,3-dione] showed a Ki greater than 43.7 µM.
Regarding `CCOc1cc(C2C(C(=O)c3ccc(C)o3)C(=O)C(=O)N2CCc2ccccc2)ccc1O` (stereo unspecified) [2-(3-ethoxy-4-hydroxyphenyl)-4-hydroxy-3-(5-methylfuran-2-carbonyl)-1-(2-phenylethyl)-2H-pyrrol-5-one], affinity was put at a Ki of 19.9 µM.
Molecule `CCOc1ccc(C(=O)C2C(=O)C(=O)N(c3nc(C)c(C)s3)C2c2ccco2)cc1` (stereo unspecified) [(4Z)-1-(4,5-dimethyl-1,3-thiazol-2-yl)-4-[(4-ethoxyphenyl)-hydroxymethylidene]-5-(furan-2-yl)pyrrolidine-2,3-dione] registered a Ki of 37.8 µM.
Molecule `COc1ccc(C(=O)C2C(=O)C(=O)N(c3nc(C)c(C)s3)C2c2ccco2)cc1` (stereo unspecified) [(4Z)-1-(4,5-dimethyl-1,3-thiazol-2-yl)-5-(furan-2-yl)-4-[(4-methoxyphenyl)-oxidanyl-methylidene]pyrrolidine-2,3-dione] gave a Ki greater than 43.7 µM.
The figure for `COc1ccc(OC)c(C2C(C(=O)c3cc4ccccc4o3)C(=O)C(=O)N2c2cc(C)on2)c1` (stereo unspecified) [3-(1-benzofuran-2-carbonyl)-2-(2,5-dimethoxyphenyl)-4-hydroxy-1-(5-methyl-1,2-oxazol-3-yl)-2H-pyrrol-5-one] is 23.9 µM; for `Cc1ccc(C(=O)C2C(=O)C(=O)N(Cc3ccccc3)C2c2cccnc2)o1` (stereo unspecified) [1-benzyl-3-hydroxy-4-[(5-methylfuran-2-yl)carbonyl]-5-(pyridin-3-yl)-2,5-dihydro-1H-pyrrol-2-one] it is greater than 43.7 µM.
Next, `CCN(CC)c1ccc(C=NC(C#N)C(=N)C#N)cc1` (stereo unspecified) [SMR000023871]: greater than 43.7 µM.
As to `O=C1C(=O)N(c2ncccn2)C(c2ccc(Cl)cc2)C1C(=O)c1ccco1` (stereo unspecified) [2-(4-chlorophenyl)-3-(furan-2-carbonyl)-4-hydroxy-1-pyrimidin-2-yl-2H-pyrrol-5-one], the Ki was greater than 43.7 µM.
As to `CCOc1cc(C2C(C(=O)c3ccco3)C(=O)C(=O)N2CCc2ccccc2)ccc1O` (stereo unspecified) [2-(3-ethoxy-4-hydroxyphenyl)-3-(furan-2-carbonyl)-4-hydroxy-1-(2-phenylethyl)-2H-pyrrol-5-one], the Ki is greater than 43.7 µM.
On to `COCc1cc(C2C(C(=O)c3ccco3)C(=O)C(=O)N2CCOCCO)ccc1O` (stereo unspecified) [3-(furan-2-carbonyl)-4-hydroxy-1-[2-(2-hydroxyethoxy)ethyl]-2-[4-hydroxy-3-(methoxymethyl)phenyl]-2H-pyrrol-5-one], for which affinity was put at a Ki of 19.4 µM.
Next, `O=C1C(=O)N(CCCN2CCOCC2)C(c2ccccn2)C1C(=O)c1cc2ccccc2o1` (stereo unspecified) [3-(1-benzofuran-2-carbonyl)-4-hydroxy-1-(3-morpholin-4-ylpropyl)-2-pyridin-2-yl-2H-pyrrol-5-one]: 39.7 µM; `COc1ccc(OC)c(C2C(C(=O)c3ccco3)C(=O)C(=O)N2CCCN2CCOCC2)c1` (stereo unspecified) [2-(2,5-dimethoxyphenyl)-3-(furan-2-carbonyl)-4-hydroxy-1-(3-morpholin-4-ylpropyl)-2H-pyrrol-5-one]: 17.3 µM; `COc1ccc(C2C(C(=O)c3ccccc3)C(=O)C(=O)N2CC(C)O)c(OC)c1` (stereo unspecified) [(4Z)-5-(2,4-dimethoxyphenyl)-4-[hydroxy(phenyl)methylene]-1-(2-hydroxypropyl)pyrrolidine-2,3-quinone]: 25.3 µM.
With `COC(=O)c1[nH]c(C)c(C(=O)C2C(=O)C(=O)N(CCN3CCOCC3)C2c2cccs2)c1C` (stereo unspecified), the affinity, expressed as Ki, was 3.3 µM.
